Assay results published in patent publication US5489612A, “Calixarene chloride-channel blockers” (The University of Alabama at Birmingham Research Foundation, priority 1994, dated 1996).
Read-outs that look alike come from different tables or passages of the source.

Tested on: colonic secretory chloride channel
Assay: Single chloride channels from rat colonic enterocyte plasma membrane vesicles incorporated into planar lipid bilayers; calixarene added to the cis (outer membrane) side
Format: biochemical
Settings: for duration of the block periods: increases with size n of p-sulfonatocalix[n]arene; for MAXIMUM BLOCK PERIODS: single channel in PE:PS 7:3 planar bilayer; for MAXIMUM BLOCK PERIODS (block of channel): UPTO 100 μM
Protocol: In accordance with the methodology of Reinhardt et al., "Properties of an Anion-selective Channel from Rat Colonic Enterocyte Plasma Membranes Reconstituted into Planar Phospholipid Bilayers", J. Membrane Biol. 95: 47-54, 1987, calixarene derivatives were tested on single chloride channels incorporated into planar lipid bilayers. Plasma membrane vesicles derived from rat colonic enterocytes were used as a source of chloride channels. Properties of the colonic secretory chloride channel include one dominant open-state conductance, an outwardly rectified current-voltage relation with a zero voltage slope conductance of 50 pS in 150 mM Cl, a Cl to Na selectivity of at least 10:1, and a halide selectivity of I>Br>CI>F. Patch-clamp studies of several chloride secreting epithelia have identified an apical membrane chloride channel with identical biophysical properties. This channel is activated by CAMP and Ca mediated agonists and thus is considered a secretory chloride channel.
Chloride channels were incorporated into planar lipid bilayers of phosphatidylethanolamine and phosphatidylserine (PE:PS, 7:3) and data recorded according to known test methodology. See, Bridges et al., "Stilbene Disulfonate Blockade of Colonic Secretory Cl^- Channels in Planar Lipid Bilayers", Am. J. Physiol. 256 (Cell Physiol. 25): C902-C912, 1989. See also, Reinhardt et al. and Singh et al., supra.
Once a chloride channel was incorporated into the bilayer, baseline (control) channel activity was recorded for 5-15 minutes. The calixarenes were then added to the cis or outer membrane side of the channel and the channel activity recorded for an additional 5-15 minutes at each concentration. Because each channel serves as its own control, calixarene effects could be uniquely identified. In some experiments the cis compartment was exchanged with calixarene-free solution to test the reversibility of the calixarene-induced effects. Single channel records were stored on video tape and quantitatively evaluated by computer assisted analysis.

[1] = single channel in planar bilayer, Table 1, read-out: Ki (concentration causing a half-maximal inhibition)

SMILES | Ki (read-out: concentration causing a half maximal decrease (K1) in Po (percent time channel in open state)) [nM] | Ki [1] [nM] | K1 (suggested from brief open periods between long blocks) (estimate) | duration of the block periods [s] | MAXIMUM BLOCK PERIODS (Table 1) [s] | MAXIMUM BLOCK PERIODS (block of channel) | long-lived block periods, duration (at a concentration as low as 3 nM) | blocking the chloride channel (even at a concentration as high as 100 μM)
COc1c2cccc1Cc1cccc(c1OC)Cc1cccc(c1OC)Cc1cccc(c1OC)C2 [25,26,27,28-TETRAMETHOXY-CALIX[4]ARENE, reference compound] | – | – | – | – | – | NO BLOCK | – | –
Oc1c2cccc1Cc1cccc(c1O)Cc1cccc(c1O)Cc1cccc(c1O)C2 [CALIX[4]ARENE, Calix[4]arene, reference compound] | – | – | – | – | – | NO BLOCK | – | completely ineffective
O=S(=O)(O)c1cc2c(O)c(c1)Cc1cc(S(=O)(=O)O)cc(c1O)Cc1cc(S(=O)(=O)O)cc(c1O)Cc1cc(S(=O)(=O)O)cc(c1O)Cc1cc(S(=O)(=O)O)cc(c1O)Cc1cc(S(=O)(=O)O)cc(c1O)Cc1cc(S(=O)(=O)O)cc(c1O)Cc1cc(S(=O)(=O)O)cc(c1O)C2 [5,11,17,23,29,35,41,47-octasulfonatocalix[8]arene] | – | < 50 | – | > 100 | > 100 | – | – | –

Further lines, with some results ahead:

Ki (read-out: concentration causing a half maximal decrease (K1) in Po (percent time channel in open state)) [nM] | Ki [1] [nM] | K1 (suggested from brief open periods between long blocks) (estimate) | SMILES | duration of the block periods [s] | MAXIMUM BLOCK PERIODS (Table 1) [s] | MAXIMUM BLOCK PERIODS (block of channel) | long-lived block periods, duration (at a concentration as low as 3 nM) | blocking the chloride channel (even at a concentration as high as 100 μM)
< 1000 | 800 to 900 | – | O=S(=O)(O)c1cc2c(O)c(c1)Cc1cc(S(=O)(=O)O)cc(c1O)Cc1cc(S(=O)(=O)O)cc(c1O)Cc1cc(S(=O)(=O)O)cc(c1O)C2 [5,11,17,23-TETRASULFONATO-CALIX[4]ARENE, 5,11,17,23-tetrasulfonato-calix[4]arene] | 3 to 4 | 3 to 4 | – | – | –
– | < 3 | subnanomolar | COc1c2cc(S(=O)(=O)O)cc1Cc1cc(S(=O)(=O)O)cc(c1OC)Cc1cc(S(=O)(=O)O)cc(c1OC)Cc1cc(S(=O)(=O)O)cc(c1OC)C2 [5,11,17,23-tetrasulfonato-25,26,27,28-tetramethoxy-calix[4]arene] | – | > 100 | – | several hundred | –
– | 400 to 500 | – | O=S(=O)(O)c1cc2c(O)c(c1)Cc1cc(S(=O)(=O)O)cc(c1O)Cc1cc(S(=O)(=O)O)cc(c1O)Cc1cc(S(=O)(=O)O)cc(c1O)Cc1cc(S(=O)(=O)O)cc(c1O)Cc1cc(S(=O)(=O)O)cc(c1O)C2 [5,11,17,23,29,35-hexasulfonatocalix[6]arene] | 30 to 40 | 30 to 40 | – | – | –
